In patent US11090386B2, “Method for suppressing bitterness of quinoline derivative” (Eisai R&D Management Co., Ltd., priority 2015, dated 2021):
Where a name gives a salt, the structure may show the parent alone.

Assays:
[1] = Bitterness measurement with taste perception apparatus, relative bitterness to Comparative Example 1; type: physicochemical; conditions: AC0 taste sensor; lenvatinib mesylate 9.8 mg/mL (8 mg/mL free form) in 10 mM potassium chloride aqueous solution, additive added, stirred 30 minutes, supernatant; average of three measurements
Description: Herein, the “bitterness” of Compound 1 or the pharmaceutically acceptable salt thereof is measured by the following method. A solution of Compound 1 at a concentration of 8 mg/mL as a free form is prepared by dissolving Compound 1 or the pharmaceutically acceptable salt thereof in a 10 mM potassium chloride aqueous solution. To the thus obtained solution, an additive is added if necessary, and the resultant is stirred for 30 minutes and then centrifuged to give a liquid phase component. The bitterness of the liquid phase component is measured using a taste sensor (ACO) for measuring bitterness, and the thus obtained value is used as a bitterness index. […]
The measurement with the taste perception apparatus was performed four times on each sample, and three measurement results of the second to fourth measurements were used for the analysis. […] It is noted that the relative bitterness was calculated using merely data obtained through a series of continuous measurements. Relative bitterness to Comparative Example 1(%)=(Measured value of each sample−Measured value of 10 mM potassium chloride aqueous solution)/(Measured value of Comparative Example 1—Measured value of 10 mM potassium chloride aqueous solution)×100%

[2] = Relative comparison of bitterness with taste perception apparatus (relative to Reference Example 7); conditions: aqueous solution of lenvatinib mesylate at a concentration of 1.225 mg/mL or more
Description: Herein, the “bitterness” of Compound 1 or the pharmaceutically acceptable salt thereof is measured by the following method. A solution of Compound 1 at a concentration of 8 mg/mL as a free form is prepared by dissolving Compound 1 or the pharmaceutically acceptable salt thereof in a 10 mM potassium chloride aqueous solution. To the thus obtained solution, an additive is added if necessary, and the resultant is stirred for 30 minutes and then centrifuged to give a liquid phase component. The bitterness of the liquid phase component is measured using a taste sensor (ACO) for measuring bitterness, and the thus obtained value is used as a bitterness index.
As a blank solution for correction, a 10 mM potassium chloride aqueous solution was subjected to the measurement. […] Relative bitterness to Reference Example 7 was calculated in accordance with the following expression, and an average of the three measurement values is shown in Table 4 and FIG. 1. It is noted that the relative bitterness was calculated using merely data obtained through a series of continuous measurements. Relative bitterness to Reference Example 7(%)=(Measured value of each sample−Measured value of 10 mM potassium chloride aqueous solution)/(Measured value of Reference Example 7—Measured value of 10 mM potassium chloride aqueous solution)×100%

Relative Bitterness to Comparative Example 1 (%) [1] [%]	SMILES	bitterness compared with a 0.1 mM quinine hydrochloride aqueous solution [2]
100	COc1cc2nccc(Oc3ccc(NC(=O)NC4CC4)c(Cl)c3)c2cc1C(N)=O [Comparative Example 1, Lenvatinib Mesylate]	–
–	COc1cc2nccc(Oc3ccc(NC(=O)NC4CC4)c(Cl)c3)c2cc1C(N)=O [lenvatinib mesylate, Lenvatinib Mesylate]	more bitter than a 0.1 mM quinine hydrochloride aqueous solution
